From patent US7223783B2, “Indolinone derivatives” (Theravance, Inc., priority 2001, dated 2007)
Where two headings read alike, the source gives them in different places.

Legend:
[1] = molecular target: T1, PDGFR (Homo sapiens, UniProt P09619); test: Immunoprecipitation/Western (IP/Western) receptor autophosphorylation; type: cell-based; parameters: expressed in transfected cells; host or cells: HEK PDGFR cell line; details: Immunoprecipitation/Western (IP) assay, HEK PDGFR cell line; highest concentration tested 1 μm
T1 sequence (P09619 33-1106): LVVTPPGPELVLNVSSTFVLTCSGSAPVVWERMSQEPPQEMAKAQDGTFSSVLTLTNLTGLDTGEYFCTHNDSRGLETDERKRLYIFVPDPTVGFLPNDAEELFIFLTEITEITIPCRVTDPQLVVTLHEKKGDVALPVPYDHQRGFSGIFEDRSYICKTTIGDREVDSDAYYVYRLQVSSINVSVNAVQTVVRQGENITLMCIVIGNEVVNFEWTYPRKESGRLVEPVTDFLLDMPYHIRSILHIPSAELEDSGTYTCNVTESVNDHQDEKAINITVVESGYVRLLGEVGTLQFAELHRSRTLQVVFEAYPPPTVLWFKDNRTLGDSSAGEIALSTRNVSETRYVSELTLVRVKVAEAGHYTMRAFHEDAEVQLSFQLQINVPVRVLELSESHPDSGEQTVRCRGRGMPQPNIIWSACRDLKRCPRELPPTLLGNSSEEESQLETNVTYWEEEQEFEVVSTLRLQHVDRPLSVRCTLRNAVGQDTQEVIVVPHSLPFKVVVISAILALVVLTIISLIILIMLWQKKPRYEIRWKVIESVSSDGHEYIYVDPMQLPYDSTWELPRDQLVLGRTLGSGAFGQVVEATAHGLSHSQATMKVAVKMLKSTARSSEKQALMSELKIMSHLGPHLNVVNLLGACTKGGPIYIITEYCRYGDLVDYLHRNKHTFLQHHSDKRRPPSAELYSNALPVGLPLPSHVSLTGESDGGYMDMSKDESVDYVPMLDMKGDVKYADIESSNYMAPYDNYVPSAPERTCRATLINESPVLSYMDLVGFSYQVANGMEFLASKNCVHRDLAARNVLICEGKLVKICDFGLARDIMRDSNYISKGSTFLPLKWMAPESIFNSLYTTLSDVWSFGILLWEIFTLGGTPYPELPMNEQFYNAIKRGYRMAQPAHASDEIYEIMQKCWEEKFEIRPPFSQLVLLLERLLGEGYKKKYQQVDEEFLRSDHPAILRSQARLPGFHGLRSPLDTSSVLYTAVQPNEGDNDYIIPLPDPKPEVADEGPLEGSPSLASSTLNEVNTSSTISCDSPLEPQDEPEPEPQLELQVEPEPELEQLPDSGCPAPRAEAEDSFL
Method: Immunoprecipitation/Western (IP/Western)
The binding of growth factors to receptor tyrosine kinases like Flt-3 or PDGFR leads to the autophosphorylation of the receptors. The inhibition of autophosphorylation is the objective pursued with kinase inhibitors. By performing an IP/Western experiment the level of receptor autophosphorylation can be assessed directly.
5×10^6 cells (HEK PDGFR cell line for PDGFR, HEK c-Kit for c-Kit, and THP-1, HL-60 or MV4-11 for Flt-3) were incubated for 30 minutes in 2.5 mL of culture media with a defined concentration of test compound. In order to stimulate receptor autophosphorylation, growth factor (PDGF, SCF, or Flt-3 ligand respectively, 50 ng/mL, Biosource International, Camarillo, Calif.) was added for 5 minutes. The cells were then centrifuged and lysed in 500 μL lysis buffer (50 mM Tris pH 7.4, 1% NP-40, 150 mM NaCl, 1 mM EDTA, 1 mM Na3V04). The lysate is centrifuged and 10 μL of antibody against the respective receptor was added to the supernatant (anti-PDGFR (P20), anti-c-Kit (C-19), and anti-Flt-3 (S18), Santa Cruz Biotechnology, Inc.). The immunocomplexes were isolated with Protein G beads (Sigma, St. Louis, Mo.) and PAGE was performed. A Western Blot was done using an antibody against phospho-tyrosine residues (4G10, Upstate Biotechnology, Lake Placid, N.Y.). The intensity of the phospho-tyrosine signal corresponding to various drug concentrations provides a way to determine the IC50 of the test compound for the inhibition of autophosphorylation.

[2] = molecular target: T2, Flt-3 ITD (Homo sapiens, UniProt P36888, INS600HVDFREYEYD); test: Proliferation and viability assay (MTT), cytotoxicity assay; type: cell-based; details: MV4-11 AML cells expressing Flt-3 ITD, 48 hours, highest concentration tested 10 μm
T2 construct: MV4-11 cells express Flt-3 ITD; endogenous in cells; host or cells: MV4-11
T2 sequence (P36888 with tags, fused parts or gaps INS600HVDFREYEYD): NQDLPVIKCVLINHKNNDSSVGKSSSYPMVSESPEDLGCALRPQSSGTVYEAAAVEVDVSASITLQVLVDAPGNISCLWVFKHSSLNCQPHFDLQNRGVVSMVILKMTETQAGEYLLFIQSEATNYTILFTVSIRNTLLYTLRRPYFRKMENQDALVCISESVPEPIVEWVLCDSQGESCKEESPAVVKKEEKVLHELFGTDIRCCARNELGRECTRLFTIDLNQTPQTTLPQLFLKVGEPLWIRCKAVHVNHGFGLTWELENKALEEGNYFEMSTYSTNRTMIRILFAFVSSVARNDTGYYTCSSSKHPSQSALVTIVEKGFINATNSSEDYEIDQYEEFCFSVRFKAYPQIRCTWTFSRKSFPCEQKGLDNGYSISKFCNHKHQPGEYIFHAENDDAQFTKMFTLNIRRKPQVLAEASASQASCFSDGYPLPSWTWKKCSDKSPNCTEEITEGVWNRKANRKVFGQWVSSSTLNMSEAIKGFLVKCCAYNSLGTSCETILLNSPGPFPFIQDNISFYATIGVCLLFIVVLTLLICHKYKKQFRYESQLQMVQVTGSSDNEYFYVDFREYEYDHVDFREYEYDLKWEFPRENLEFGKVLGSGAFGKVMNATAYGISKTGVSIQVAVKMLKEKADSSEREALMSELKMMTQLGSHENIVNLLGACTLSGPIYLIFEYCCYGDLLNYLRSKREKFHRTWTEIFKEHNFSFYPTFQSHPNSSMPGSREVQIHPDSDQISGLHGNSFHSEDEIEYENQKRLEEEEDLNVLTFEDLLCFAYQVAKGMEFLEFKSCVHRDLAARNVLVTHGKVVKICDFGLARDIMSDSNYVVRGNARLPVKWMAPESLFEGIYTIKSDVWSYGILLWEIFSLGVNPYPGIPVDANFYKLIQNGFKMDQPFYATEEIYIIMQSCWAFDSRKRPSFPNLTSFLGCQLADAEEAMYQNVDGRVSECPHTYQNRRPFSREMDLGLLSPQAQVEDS

[3] = system: receptor tyrosine kinases PDGFR, c-Kit, VEGFR and Flt-3; test: One or more of the FLIPR, MTT and IP/Western whole cell assays; type: cell-based
Method: In order to determine the IC50 of test compounds against the VEGFR in the FLIPR assay, HUVECs (Walkersville, Md.) were used. For the determination of IC50s against the PDGFR, a HEK cell line were used that expresses the human PDGFR. 40–50000 cells per well were plated in a 96 well plate. The cells were incubated for 3–4 hours to adhere to the plate. Subsequently, the cells were washed twice in FLIPR buffer (1×HBS, 2 mM CaCl, 10 mM HEPES, pH7.4, 2.5 mM Probenecid, 0.1% BSA). After the second wash 50 μL of the Ca^2+ sensitive dye FLUO-3 (FLUO-3 (AM) TEF Labs, 50 μg in 10 mL FLIPR buffer) was added to the remaining 50 μL buffer in each well. After loading the cells for one hour, the cells were washed twice and the test compounds were added in 50 μL as a 2× solution to the 50 μL of buffer in each well. The cells were incubated with the compounds for 30 minutes and then VEGF (40 ng/mL, BioSource International) for the VEGFR or PDGF (40 ng/mL, BioSource International) for the PDGFR was added. The change in fluorescence intensity was measured in a Fluorometric Image Plate Reader (FLIPR) (Molecular Devices).
The inhibition of mutant Flt-3 ITD is expected to affect the proliferation and viability of AML cells with this mutation. […] The plate was incubated at 37 degrees Celsius for 24 hours and, then, the optical density of the wells was determined spectrophotometrically at 550 nm. […]

[4] = molecular target: T3, VEGFR (Homo sapiens, UniProt P35968); test: Ca2+ release assay (FLIPR) in HUVECs; type: cell-based; details: VEGF 40 ng/mL, highest concentration tested 1 μm
T3 construct: against the VEGFR in the FLIPR assay, HUVECs (Walkersville, Md.) were used; endogenous in cells; host or cells: HUVEC
T3 sequence (P35968 20-1356): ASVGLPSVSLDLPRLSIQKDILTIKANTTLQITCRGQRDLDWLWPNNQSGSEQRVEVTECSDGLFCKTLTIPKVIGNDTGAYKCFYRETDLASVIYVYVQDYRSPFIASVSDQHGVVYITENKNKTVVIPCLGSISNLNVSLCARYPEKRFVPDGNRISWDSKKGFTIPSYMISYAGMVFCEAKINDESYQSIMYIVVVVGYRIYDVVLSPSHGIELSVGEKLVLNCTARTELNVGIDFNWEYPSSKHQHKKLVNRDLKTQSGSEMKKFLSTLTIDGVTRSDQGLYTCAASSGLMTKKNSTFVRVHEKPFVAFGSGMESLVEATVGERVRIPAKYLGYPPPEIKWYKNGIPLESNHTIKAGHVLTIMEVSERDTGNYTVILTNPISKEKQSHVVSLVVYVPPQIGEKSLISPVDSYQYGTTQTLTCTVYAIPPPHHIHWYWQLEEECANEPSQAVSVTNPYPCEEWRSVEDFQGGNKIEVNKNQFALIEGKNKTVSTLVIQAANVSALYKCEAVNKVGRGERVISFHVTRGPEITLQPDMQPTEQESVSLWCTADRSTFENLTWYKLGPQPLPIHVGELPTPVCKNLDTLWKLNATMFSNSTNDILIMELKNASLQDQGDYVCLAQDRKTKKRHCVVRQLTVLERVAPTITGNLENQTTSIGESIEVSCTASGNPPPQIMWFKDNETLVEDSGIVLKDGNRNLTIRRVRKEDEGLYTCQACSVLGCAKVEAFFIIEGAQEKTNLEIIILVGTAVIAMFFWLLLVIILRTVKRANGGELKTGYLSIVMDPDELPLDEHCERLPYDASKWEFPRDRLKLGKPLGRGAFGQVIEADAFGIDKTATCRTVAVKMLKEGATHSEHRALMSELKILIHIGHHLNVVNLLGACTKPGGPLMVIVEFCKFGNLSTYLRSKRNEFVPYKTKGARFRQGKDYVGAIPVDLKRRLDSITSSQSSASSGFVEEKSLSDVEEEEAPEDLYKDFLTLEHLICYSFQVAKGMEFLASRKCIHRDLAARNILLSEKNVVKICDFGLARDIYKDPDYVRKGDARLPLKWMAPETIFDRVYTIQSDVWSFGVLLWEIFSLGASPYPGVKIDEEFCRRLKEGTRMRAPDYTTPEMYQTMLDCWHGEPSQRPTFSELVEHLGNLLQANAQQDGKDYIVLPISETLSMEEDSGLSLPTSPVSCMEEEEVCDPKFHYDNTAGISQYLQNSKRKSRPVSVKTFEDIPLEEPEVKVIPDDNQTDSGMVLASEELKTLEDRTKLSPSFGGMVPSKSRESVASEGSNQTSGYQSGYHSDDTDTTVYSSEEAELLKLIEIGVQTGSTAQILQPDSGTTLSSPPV

[5] = Solubility in water; type: physicochemical
[6] = Pharmacokinetics in male Sprague Dawley rats; type: in vivo, rat
Method: To evaluate pharmacokinetics, male Sprague Dawley rats (CD strain, Charles River Laboratories, Wilmington, Mass.) were dosed with test compounds via intravenous (IV) administration, at 1 mg/kg concentration, and oral (PO) administration, at 10 mg/kg concentration. Blood samples were collected from animals pre-dose, and at 2, 5, 15, and 30 minutes, and at 1, 2, 4, 6, 8, and 24 hours post-dose. Plasma concentrations were determined by liquid chromatography-mass spectrometry (LC-MS) (MDS SCIEX API 4000, Applied Biosystems, Foster City, Calif.). Standard pharmacokinetic parameters were assessed by non-compartmental methods using the WinNonlin Version 3.2 software package (Pharsight, Mountain View, Calif.). Oral bioavailability was determined as the ratio of the area under the curve (AUC) in the graph of plasma concentration versus time for PO administration to the corresponding quantity for IV administration.

[7] = molecular target: T1, PDGFR; test: Ca2+ release assay (FLIPR) in HEK cell line expressing human PDGFR; type: cell-based; parameters: expressed in transfected cells; host or cells: HEK; details: HEK cells expressing human PDGFR, PDGF 40 ng/mL
[8] = prior art statement; cited from earlier work
[9] = upon oral and intravenous administration; cited from earlier work
[10] = molecular target: T4, Flt-3 (Homo sapiens, UniProt P36888); details: Abstract 497, O'Farrell et al., ASH 2001; cited from earlier work
T4 sequence (P36888 27-993): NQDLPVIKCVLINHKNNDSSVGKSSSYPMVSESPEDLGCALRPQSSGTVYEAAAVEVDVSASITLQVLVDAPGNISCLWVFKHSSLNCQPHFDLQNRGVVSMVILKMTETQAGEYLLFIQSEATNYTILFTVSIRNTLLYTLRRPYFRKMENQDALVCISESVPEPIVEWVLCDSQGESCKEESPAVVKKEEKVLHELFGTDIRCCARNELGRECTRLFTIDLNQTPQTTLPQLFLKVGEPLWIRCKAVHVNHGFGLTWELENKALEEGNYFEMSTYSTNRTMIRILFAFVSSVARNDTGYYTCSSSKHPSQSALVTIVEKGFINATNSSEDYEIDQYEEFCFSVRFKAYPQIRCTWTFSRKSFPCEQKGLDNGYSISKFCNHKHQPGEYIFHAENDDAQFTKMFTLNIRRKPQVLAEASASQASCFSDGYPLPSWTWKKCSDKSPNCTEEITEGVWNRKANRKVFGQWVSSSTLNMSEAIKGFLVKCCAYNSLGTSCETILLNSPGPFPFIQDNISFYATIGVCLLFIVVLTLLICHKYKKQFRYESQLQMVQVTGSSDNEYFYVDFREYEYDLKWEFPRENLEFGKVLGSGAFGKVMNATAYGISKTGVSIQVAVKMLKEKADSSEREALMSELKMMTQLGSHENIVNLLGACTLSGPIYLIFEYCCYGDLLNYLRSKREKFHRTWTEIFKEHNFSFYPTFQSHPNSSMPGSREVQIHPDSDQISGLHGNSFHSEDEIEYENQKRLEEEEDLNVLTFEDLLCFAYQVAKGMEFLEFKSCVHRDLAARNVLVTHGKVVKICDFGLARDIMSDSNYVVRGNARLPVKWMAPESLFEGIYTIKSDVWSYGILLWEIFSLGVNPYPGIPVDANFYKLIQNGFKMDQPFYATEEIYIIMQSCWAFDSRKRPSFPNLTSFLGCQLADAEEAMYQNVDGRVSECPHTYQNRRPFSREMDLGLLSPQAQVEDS

SMILES	IC50 [1]	PDGFR IC50 [1]	EC50 [2]	Flt-3 EC50 [2]	Inhibition of one or more of PDGFR, c-Kit, VEGFR and Flt-3 [3]	IC50 [4]	VEGFR IC50 [4]	Solubility in water [5]	bioavailability ([6]; male, Sprague-Dawley, rat, plasma, oral, 10 mg/kg)	Absorption on oral administration ([6]; oral administration)	IC50 [7]	PDGFR IC50 [7]	Solubility in water [8]	bioavailability [9]	Ability to inhibit the receptor tyrosine kinase Flt-3 [10]
Cc1[nH]c(C=C2C(=O)Nc3ccccc32)c(C)c1CCC(=O)N1CCNCC1.O=C(O)C(F)(F)F [Example 1, 3-[3,5-dimethyl-4-(3-oxo-3-piperazin-1-yl-propyl)-1H-pyrrol-2-ylmethylene]-1,3-dihydroindol-2-one, trifluoroacetate]	30 nM	sub-micromolar activity	240 nM	sub-micromolar activity	highly potent and selective inhibitor	20 nM	sub-micromolar activity	high solubility in water	50.6%	excellent absorption	–	–	–	–	–
CCN1CCN(C(=O)CCc2c(C)[nH]c(C=C3C(=O)Nc4ccccc43)c2C)CC1.O=C(O)C(F)(F)F [Example 22, 3-[3,5-dimethyl-4-[3-oxo-3-(4-ethyl)piperazin-1-ylpropyl]-1H-pyrrol-2-ylmethylene]-1,3-dihydroindol-2-one, trifluoroacetate]	–	–	220 nM	sub-micromolar activity	–	30 nM	sub-micromolar activity	–	–	–	90 nM	sub-micromolar activity	–	–	–
Cc1cc(C)c(/C=C2\C(=O)Nc3ccccc32)[nH]1 [SU5416]	–	–	–	–	–	–	–	–	–	–	–	–	poor solubility in water	low bioavailability	–
Cc1[nH]c(C=C2C(=O)Nc3ccccc32)c(C)c1CCC(=O)O [SU6668, 3-[2,4-dimethyl-5-(2-oxo-1,2-dihydroindol-3-ylidenemethyl)-1H-pyrrol-3-yl]propionic acid, reference compound]	–	No activity**^#	–	No activity*	–	–	No activity**	–	–	–	–	–	–	–	lack the ability
